{
  "source": "patent US20220339135A1",
  "about": "“COMPOSITIONS AND METHODS FOR MODULATING AN INFLAMMATORY RESPONSE” (Enzychem Lifesciences Corporation, priority 2019, published 2022)",
  "tested_on": "gemcitabine-induced neutrophil extravasation",
  "experiment": "Gemcitabine-induced neutropenia mice model",
  "assay_type": "in vivo",
  "experimental": "Male BALB/c mice were randomly divided into 3 groups; normal control group (n=5), gemcitabine only group (n=5) and gemcitabine with PLAG group (n=5). The mice were intraperitoneally (i.p.) injected with 50 mg/kg gemcitabine to induce neutropenia. PLAG was diluted with phosphate-buffered saline (PBS) and then orally administrated at a dose of 50 or 250 mg/kg/day. The normal control group was administered PBS only during the experiment. The whole blood was collected from the orbital sinuses using capillary tubes (Kimble Chase Life Science and Research Products LLC, FL, USA) and collection tubes containing K3E-K3EDTA (Greiner Bio-One International, Germany). To obtain peritoneal cells, 5 ml of cold PBS was injected to the left side of the peritoneal wall using a 5 mL syringe, and the fluid was aspirated from the peritoneum. The collected cells were counted by complete blood count (CBC) analysis using Mindray BC-5300 auto-hematology analyzer (Shenzhen Mindray Biomedical Electronics, China). To establish a 4T1 tumor-bearing mice model, the murine 4T1 mammary carcinoma cells (1×10^5) were subcutaneously injected on the right side of the abdomen. On the 10th day after tumor injection, the mice were intraperitoneally (i.p.) injected with 50 mg/kg gemcitabine, and the next day the whole blood was collected from the orbital sinuses as mentioned above before sacrificing the animals to obtain different organs of the body for RT-PCR.\nPLAG inhibits gemcitabine-induced neutrophil extravasation into the peritoneum by down-regulating the expression of adhesion molecules in normal BALB/c mice. Male BALB/c mice of 8-10 weeks of age were orally administrated with 50 or 250 mg/kg of PLAG and then were intraperitoneally injected with 50 mg/kg gemcitabine. After 24 h, blood samples were collected by retro-orbital bleeding, and the number of blood neutrophils was determined by CBC analysis. Each group contains five mice. The population of blood neutrophils was analyzed by flow cytometry. Red cell-lysed whole blood was stained with FITC-conjugated anti-Ly6G and PE-Cy7-conjugated anti-CD11b antibodies to determine the circulating neutrophil population. Ly6G+/CD11b+ cells were further stained with APC-conjugated anti-L-selectin and APC-conjugated anti-LFA-1 antibodies and were analyzed by flow cytometry to determine the expression of adhesion molecules.\nThe mice were intraperitoneally (i.p.) injected with 50 mg/kg gemcitabine to induce neutropenia. PLAG was diluted with phosphate-buffered saline (PBS) and then orally administrated at a dose of 50 or 250 mg/kg/day. The normal control group was administered PBS only during the experiment. At 15 h after gemcitabine treatment, the whole blood was collected from the orbital sinuses using capillary tubes (Kimble Chase Life Science and Research Products LLC, FL, USA) and collection tubes containing K3E-K3EDTA (Greiner Bio-One International, Kremsmünster, Austria). To obtain peritoneal cells, 5 ml of cold PBS was injected to the left side of the peritoneal wall using a 5 mL syringe, and the fluid was aspirated from the peritoneum. The collected cells were counted by complete blood count (CBC) analysis using Mindray BC-5300 auto-hematology analyzer (Shenzhen Mindray Biomedical Electronics, Guangdong Sheng, China).\nTo establish a 4T1 tumor-bearing mice model, the murine 4T1 mammary carcinoma cells (1×105) were subcutaneously injected on the right side of the abdomen. On the 10th day after tumor injection, the mice were intraperitoneally (i.p.) injected with 50 mg/kg gemcitabine, and the next day the whole blood was collected from the orbital sinuses as mentioned above before sacrificing the animals to obtain different organs of the body.",
  "data": [
    {"compound": "CCCCC/C=C\\C/C=C\\CCCCCCCC(=O)OC(COC(C)=O)COC(=O)CCCCCCCCCCCCCCC", "note": "(racemic) [PLAG, 1-palmitoyl-2-linoleoyl-3-acetylglycerol]", "values": [
      {"measurement": "neutrophil counts in the peritoneum", "setting": "15 hours after gemcitabine", "result": "effectively decreases"},
      {"measurement": "gemcitabine-induced cell surface expression of L-selectin and LFA-1", "setting": "Gr-1+/CD11b+ cells", "result": "effectively inhibited"},
      {"measurement": "circulating neutrophil counts", "setting": "PLAG 50 and 250 mg/kg oral, 15 hours after gemcitabine, dose-dependent", "result": "restored circulating neutrophils to an almost normal range"},
      {"measurement": "population of Gr-1+ and CD11b+ neutrophils in the blood", "setting": "gemcitabine 50 mg/kg i.p.", "result": "maintained"}
    ]}
  ]
}
